Assay results: patent EP4759810A1, “PROTAC TARGETING BCL-XL PROTEIN AND USE THEREOF” (BEIJING SUNCELL BIO-MEDICAL CO., LTD., priority 2023, dated 2025)
Like-named read-outs stand apart in the source and are kept apart here.

How the values were obtained:
Molt-4 cells = assay: Molt-4 cell killing activity test (CCK-8); type: cell-based; details: for activity for killing Molt-4 cells, in words: comparison with C1, the targeting ligand or control molecules; for killing Molt-4 cells at different concentrations (Figure 1), in words: 0.001-3 µM, comparison with control molecules
Experimental: Molt-4 cells were cultured and amplified in 10 cm dishes by using RPMI-1640 medium supplemented with 10% fetal bovine serum. Actively growing and healthy Molt-4 cells were collected, centrifuged at 1000 rpm for 5 minutes, and after removing the supernatant, the cells were resuspended in fresh RPMI-1640 medium containing 10% fetal bovine serum. Cell counting was then performed. The cell density was adjusted to 120,000 cells per milliliter, and 100 µL of the cell suspension was added to each well of a 96-well transparent cell culture plate. It was noted that the edge wells of the 96-well plate were not used for testing; and 300 µL of PBS alone was added to these wells to reduce medium evaporation.
The small molecule compounds to be tested for activity were prepared. A series of small molecule concentration gradients (0.001, 0.003, 0.01, 0.03, 0.1, 0.3, 1, and 3 µM) were pre-set, and a series of 2× drug dilutions for the above concentrations were prepared in RPMI-1640 medium containing 10% fetal bovine serum. 100 µL of the above medium containing the gradient concentrations of the drug was added to each well of a 96-well plate pre-seeded with cells, so that the final drug concentration in each well was the pre-set concentration gradient. Three replicate wells were used for each tested drug concentration. The 96-well plate was placed back in a 37°C incubator, and the cell viability was measured after three days.
The plate was taken out three days after adding the drugs, and 100 µL of pre-prepared CCK-8 working solution was added to each well. The CCK-8 working solution was obtained through diluting a CCK-8 stock solution (C0041, Beyotime) by 10-fold volumn with a serum-free RPMI-1640 medium. The 96-well plates with the added CCK-8 working solution were placed back in the 37°C incubator and incubated for 0.5-2 hours. The plates were then taken out, and the absorbance value (OD value) of each well was measured at a wavelength of 450 nm, and the cell viability in each experimental group was calculated according to the following formula: Relative cell viability (%) = […] × 100%.

[1] = Metabolic stability assay in liver microsomes (mouse); type: in vitro ADME; details: mouse liver microsomes 0.5 mg/mL; 1 µM compound; 37°C
Experimental: (§1) The metabolic reaction of compounds in liver microsome was performed in a system with a total volume of 400 µL, and the following steps below were sequentially performed for the reaction and detection: 1) 200 µL of phosphate buffer (200 mM), 106 µL of sterile ultrapure water, and 40 µL of magnesium chloride solution (50 mM) were added to each detection tube to prepare a reaction working solution. 2) Two reaction systems with or without adding NADPH were prepared for each compound to be tested. For the reaction system with adding NADPH: 10 µL of liver microsomes (20 mg/mL) and 40 µL of NADPH (10 mM) were added to the above working solution; for the reaction system without adding NADPH: 10 µL of liver microsomes (20 mg/mL) and 40 µL of sterile ultrapure water were added to the above working solution. The final concentration of liver microsomes in both reaction systems was 0.5 mg/mL. 3) 4 µL of the compound to be tested ([…]) was added to each reaction tube, resulting in a final concentration of 1 µM for the compound in the reaction system. The detection tubes were placed at 37°C for reaction. 4) 50 µL samples were taken from each detection tube at 0, 15, 30, 45, and 60 minutes after adding the compound. The reaction was terminated by adding cold acetonitrile containing IS (100 nM alprazolam, 200 nM labetalol, 200 nM caffeine, and 2 µM ketoprofen) in a 4× volume. The samples were centrifuged at 3220 g for 40 minutes, 100 µL of the supernatant was mixed with 100 µL of ultrapure water, and a sample was taken for LC-MS/MS analysis.
(§2) Calculation of in vitro liver microsomal metabolic half-life and in vitro metabolic intrinsic clearance rate: The LC-MS detection results were analyzed to obtain the percentage of the remaining amount of the tested compound relative to the initial amount at each time point. The natural logarithm of the remaining percentage was linearly fitted against the incubation time.

[2] = Metabolic stability assay in liver microsomes (human); type: in vitro ADME; details: human liver microsomes 0.5 mg/mL; 1 µM compound; 37°C
Experimental: as §1, §2

[3] = Homo sapiens, 72 h, Molt-4 cells, three days, CCK-8, read-out: EC50 (Molt-4)
[4] = Homo sapiens, Bcl-xL-positive Molt-4 cells, read-out: cellular activity / killing activity (Molt-4 cells)

For `O=C1CCC(N2C(=O)c3cccc(NCCOCCOCCOCCOCCNC(=O)c4nc(N5CCc6cccc(C(=O)Nc7nc8ccccc8s7)c6C5)ccc4CCCOc4ccc(C#CCN5CCNCC5)cc4F)c3C2=O)C(=O)N1` (centres unmarked) [AF4], the EC50 (Molt-4 cells; [3]) was greater than 1000 nM and the “activity for killing Molt-4 cells, in words” value (“activity” below) (Molt-4 cells) was “lower killing activity or loss the function”.

For `Cc1c(-c2ccc(N3CCc4cccc(C(=O)Nc5nc6ccccc6s5)c4C3)nc2C(=O)NCCOCCOCCNc2cccc3c2C(=O)N(C2CCC(=O)NC2=O)C3=O)cnn1CC12CC3CC(CC(C3)C1)C2` (centres unmarked) [APF2], the EC50 (Molt-4 cells; [3]) was less than 10 nM and the “activity” value (Molt-4 cells) was “good cellular activity similar to those of the targeting ligand per se”.

In the case of `Cc1c(-c2ccc(N3CCc4cccc(C(=O)Nc5nc6ccccc6s5)c4C3)nc2C(=O)NCCOCCOCCOCCNc2cccc3c2C(=O)N(C2CCC(=O)NC2=O)C3=O)cnn1CC12CC3CC(CC(C3)C1)C2` (centres unmarked) [APF3], the EC50 (Molt-4 cells; [3]) is reported as less than 10 nM and the “activity” value (Molt-4 cells) is reported as “good cellular activity similar to those of the targeting ligand per se”.

With `Cc1c(-c2ccc(N3CCc4cccc(C(=O)Nc5nc6ccccc6s5)c4C3)nc2C(=O)NCCOCCOCCOCCOCCNc2cccc3c2C(=O)N(C2CCC(=O)NC2=O)C3=O)cnn1CC12CC3CC(CC(C3)C1)C2` (centres unmarked) [APF4] the EC50 (Molt-4 cells; [3]) was less than 10 nM and the “activity” value (Molt-4 cells) was “good cellular activity similar to those of the targeting ligand per se”.

Work on `CN[C@@H](C)C(=O)N[C@H](C(=O)N1CCC[C@H]1c1nc(C(=O)c2cccc(OCCN3CCC(CN4CCN(CC#Cc5ccc(OCCCc6ccc(N7CCc8cccc(C(=O)Nc9nc%10ccccc%10s9)c8C7)nc6C(=O)O)c(F)c5)CC4)CC3)c2)cs1)C1CCCCC1` [APL-1] yielded an EC50 (Molt-4 cells; [3]) of 10 to 100 nM.

Compound `Cc1ncsc1-c1ccc([C@H](C)NC(=O)[C@@H]2C[C@@H](O)CN2C(=O)[C@@H](NC(=O)CCN2CCC(CN3CCN(CC#Cc4ccc(OCCCc5ccc(N6CCc7cccc(C(=O)Nc8nc9ccccc9s8)c7C6)nc5C(=O)O)c(F)c4)CC3)CC2)C(C)(C)C)cc1` [APQ3] has an EC50 (Molt-4 cells; [3]) of 10 to 100 nM.

In the case of `O=C1CCN(c2ccc(N3CCN(C(=O)CCN4CCN(CC#Cc5ccc(OCCCc6ccc(N7CCc8cccc(C(=O)Nc9nc%10ccccc%10s9)c8C7)nc6C(=O)O)c(F)c5)CC4)CC3)cc2)C(=O)N1` [APQ5a], the EC50 (Molt-4 cells; [3]) is reported as less than 10 nM and the EC50 (Molt-4 cells; [4]) is reported as less than 10 nM.

With `O=C1CCN(c2ccc(N3CCN(C(=O)CCCN4CCN(CC#Cc5ccc(OCCCc6ccc(N7CCc8cccc(C(=O)Nc9nc%10ccccc%10s9)c8C7)nc6C(=O)O)c(F)c5)CC4)CC3)cc2)C(=O)N1` [APQ5b] the EC50 (Molt-4 cells; [3]) was 10 to 100 nM.

With `O=C1CCN(c2ccc(N3CC(CN4CCN(CC#Cc5ccc(OCCCc6ccc(N7CCc8cccc(C(=O)Nc9nc%10ccccc%10s9)c8C7)nc6C(=O)O)c(F)c5)CC4)C3)cc2)C(=O)N1` [APQ6b] the EC50 (Molt-4 cells; [3]) was 10 to 100 nM.

In the case of `O=C1CCN(c2ccc(N3CCN(C4CCN(CC#Cc5ccc(OCCCc6ccc(N7CCc8cccc(C(=O)Nc9nc%10ccccc%10s9)c8C7)nc6C(=O)O)c(F)c5)CC4)CC3)cc2)C(=O)N1` [APQ7a], the “killing Molt-4 cells at different concentrations (Figure 1), in words” value (Molt-4 cells) is reported as “comparable to A-1331852”, the EC50 (Molt-4 cells; [3]) is reported as less than 10 nM and the EC50 (Molt-4 cells; [4]) is reported as less than 10 nM.

Compound `O=C1CCN(c2ccc(N3CCN(CC4CCN(CC#Cc5ccc(OCCCc6ccc(N7CCc8cccc(C(=O)Nc9nc%10ccccc%10s9)c8C7)nc6C(=O)O)c(F)c5)CC4)CC3)cc2)C(=O)N1` [APQ7b] has an EC50 (Molt-4 cells; [3]) of 10 to 100 nM.

With `O=C1CCN(c2ccc(OCCN3CCC(CN4CCN(CC#Cc5ccc(OCCCc6ccc(N7CCc8cccc(C(=O)Nc9nc%10ccccc%10s9)c8C7)nc6C(=O)O)c(F)c5)CC4)CC3)cc2)C(=O)N1` [APQ8] the EC50 (Molt-4 cells; [3]) was 10 to 100 nM.

With `COC(=O)c1nc(N2CCc3cccc(C(=O)Nc4nc5ccccc5s4)c3C2)ccc1CCCOc1ccc(C#CCN2CCN(c3ccc(N4CCC(=O)NC4=O)cc3)CC2)cc1F` [APQ9-1] the EC50 (Molt-4 cells; [3]) was greater than 1000 nM and the “activity” value (Molt-4 cells) was “lower killing activity or loss the function”.

With `CC(C)(C)OC(=O)c1nc(N2CCc3cccc(C(=O)Nc4nc5ccccc5s4)c3C2)ccc1CCCOc1ccc(C#CCN2CCN(CC3CCN(c4ccc(N5CCC(=O)NC5=O)cc4)CC3)CC2)cc1F` [APQ10-1] the EC50 (Molt-4 cells; [3]) was greater than 1000 nM and the “activity” value (Molt-4 cells) was “lower killing activity or loss the function”.

With `O=C1CCC(n2nnc3ccc(NCCN4CCC(CN5CCN(CC#Cc6ccc(OCCCc7ccc(N8CCc9cccc(C(=O)Nc%10nc%11ccccc%11s%10)c9C8)nc7C(=O)O)c(F)c6)CC5)CC4)cc3c2=O)C(=O)N1` (centres unmarked) [APQ11] the “killing Molt-4 cells at different concentrations (Figure 1), in words” value (Molt-4 cells) was “comparable to A-1331852”, the EC50 (Molt-4 cells; [3]) was less than 10 nM and the EC50 (Molt-4 cells; [4]) was less than 10 nM.

`COc1cc(N2CCN(CC#Cc3ccc(OCCCc4ccc(N5CCc6cccc(C(=O)Nc7nc8ccccc8s7)c6C5)nc4C(=O)O)c(F)c3)CC2)ccc1N1CCC(=O)NC1=O` [APQ902a] showed an EC50 (Molt-4 cells; [3]) of less than 10 nM and an EC50 (Molt-4 cells; [4]) of less than 10 nM.

For `Cc1c(-c2ccc(N3CCc4cccc(C(=O)Nc5nc6ccccc6s5)c4C3)nc2C(=O)NCCn2cc(COCCNc3cccc4c3C(=O)N(C3CCC(=O)NC3=O)C4=O)nn2)cnn1CC12CC3CC(CC(C3)C1)C2` (centres unmarked) [APR1], the EC50 (Molt-4 cells; [3]) was less than 10 nM and the “activity” value (Molt-4 cells) was “good cellular activity similar to those of the targeting ligand per se”.

In the case of `Cc1c(-c2ccc(N3CCc4cccc(C(=O)Nc5nc6ccccc6s5)c4C3)nc2C(=O)NCCn2cc(COCCOCCNc3cccc4c3C(=O)N(C3CCC(=O)NC3=O)C4=O)nn2)cnn1CC12CC3CC(CC(C3)C1)C2` (centres unmarked) [APR2], the EC50 (Molt-4 cells; [3]) is reported as less than 10 nM and the “activity” value (Molt-4 cells) is reported as “good cellular activity similar to those of the targeting ligand per se”.

For `Cc1c(-c2ccc(N3CCc4cccc(C(=O)Nc5nc6ccccc6s5)c4C3)nc2C(=O)NCCn2cc(COCCOCCOCCNc3cccc4c3C(=O)N(C3CCC(=O)NC3=O)C4=O)nn2)cnn1CC12CC3CC(CC(C3)C1)C2` (centres unmarked) [APR3], the EC50 (Molt-4 cells; [3]) was less than 10 nM and the “activity” value (Molt-4 cells) was “good cellular activity similar to those of the targeting ligand per se”.

In the case of `Cc1c(-c2ccc(N3CCc4cccc(C(=O)Nc5nc6ccccc6s5)c4C3)nc2C(=O)NCCn2cc(COCCOCCOCCOCCNc3cccc4c3C(=O)N(C3CCC(=O)NC3=O)C4=O)nn2)cnn1CC12CC3CC(CC(C3)C1)C2` (centres unmarked) [APR4], the EC50 (Molt-4 cells; [3]) is reported as less than 10 nM and the “activity” value (Molt-4 cells) is reported as “good cellular activity similar to those of the targeting ligand per se”.

For `[2H]C1([2H])Cc2cccc(C(=O)Nc3nc4ccccc4s3)c2CN1c1ccc(-c2cnn(CC34CC5CC(CC(C5)C3)C4)c2C)c(C(=O)NCCOCCOCCOCCNc2cccc3c2C(=O)N(C2CCC(=O)NC2=O)C3=O)n1` (centres unmarked) [Compound A13D6-PF3], the EC50 (Molt-4 cells; [3]) was less than 10 nM and the “activity” value (Molt-4 cells) was “good cellular activity similar to those of the targeting ligand per se”.

With `[2H]c1c([2H])c([2H])c2sc(NC(=O)c3cccc4c3CN(c3ccc(-c5cnn(CC67CC8CC(CC(C8)C6)C7)c5C)c(C(=O)O)n3)CC4)nc2c1[2H]` [Compound A13D-1] the Clint [1] was 266.89 µL/min/mg protein, the T1/2 [1] was 5.19 min and the Clint [2] was 235.82 µL/min/mg protein. For the same compound, the T1/2 [2] was 5.88 min.

`[2H]C1([2H])c2c(C(=O)Nc3nc4ccccc4s3)cccc2C([2H])([2H])C([2H])([2H])N1c1ccc(-c2cnn(CC34CC5CC(CC(C5)C3)C4)c2C)c(C(=O)O)n1` [Compound A13D-2] showed a Clint [1] of 18.15 µL/min/mg protein, a T1/2 [1] of 76.36 min and a Clint [2] of 55.31 µL/min/mg protein. It also gave a T1/2 [2] of 25.06 min.

For `CN(C)CC#Cc1ccc(OCCCc2sc(N3CCc4cccc(C(=O)Nc5nc6ccccc6s5)c4C3)nc2C(=O)O)c(F)c1` [Compound A-1155463, reference compound], the EC50 (Molt-4 cells; Molt-4 cells, three days, CCK-8, read-out: EC50 (Molt-4)) was less than 10 nM.
